Data: US10420734B2, “Method of treating cancer using selective estrogen receptor modulators” (Duke University, priority 2014, dated 2019)

How the values were obtained:
Type in all cases: cell-based
[1] = biological target: T1, human estrogen receptor alpha (ESR1) (Homo sapiens, UniProt P03372); assay: ERE-luciferase reporter assay in transiently transfected SKBR3 cells (ESR1)
T1 construct: expressed in transfected cells; host or cells: SKBR3
T1 sequence (P03372 1-595): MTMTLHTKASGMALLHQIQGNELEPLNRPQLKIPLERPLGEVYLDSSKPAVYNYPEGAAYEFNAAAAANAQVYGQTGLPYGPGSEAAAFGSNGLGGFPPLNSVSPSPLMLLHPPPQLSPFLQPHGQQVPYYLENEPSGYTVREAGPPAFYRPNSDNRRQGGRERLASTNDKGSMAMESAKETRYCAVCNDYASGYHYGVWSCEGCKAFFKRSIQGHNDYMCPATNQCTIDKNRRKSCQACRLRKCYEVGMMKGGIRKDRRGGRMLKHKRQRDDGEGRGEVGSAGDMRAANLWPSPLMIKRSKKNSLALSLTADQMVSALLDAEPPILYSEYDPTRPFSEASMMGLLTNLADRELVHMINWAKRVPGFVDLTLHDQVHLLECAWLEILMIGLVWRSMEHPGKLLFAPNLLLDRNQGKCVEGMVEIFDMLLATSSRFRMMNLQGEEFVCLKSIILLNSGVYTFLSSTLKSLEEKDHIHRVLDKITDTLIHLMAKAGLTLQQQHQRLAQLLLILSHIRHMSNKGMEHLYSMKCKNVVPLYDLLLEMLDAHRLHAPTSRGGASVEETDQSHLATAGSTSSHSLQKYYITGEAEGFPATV
Method: (§1) The ability of RAD1901 (FIG. 5A) to modulate the […] estradiol (E2) dependent transcriptional activity of the human estrogen receptor alpha (ESR1) and human estrogen receptor beta (ESR2) was assessed in transiently transfected SKBR3 cells using a synthetic reporter gene. […] For FIG. 5B, SKBR3 cells were plated in phenol red free media supplemented with charcoal stripped FBS (CFS) 24 hours prior to transfection with an ERE-luciferase reporter together with ESR1 or ESR2 expression vectors. 24 hours after transfection, cells were treated with E2 (10 nM) together with RAD1901 (10^−10-10^−6 M) for 24 hours prior to harvest and analysis of luciferase activity normalized to co-transfected β-galactosidase control. […] For FIG. 5D, MCF7 cells were plated in phenol red free media supplemented with CFS 24 hours prior to treatment, and were treated with 10^−9 M E2 as well as with the indicated ligands (10^−11-10^−6 M) on days 1, 4, and 6 of an 8 day proliferation assay. DNA content as assessed by fluorescence was measured as a surrogate for cell proliferation. The relative increase in DNA fluorescence was calculated by normalizing to baseline values detected in a duplicate plate of cells that was harvested on day 1 prior to the initial treatment. […] For FIG. 5F, expression of ESR1 target genes in tumors was analyzed essentially as in (C).

[2] = biological target: T2, human estrogen receptor beta (ESR2) (Homo sapiens, UniProt Q92731); assay: ERE-luciferase reporter assay in transiently transfected SKBR3 cells (ESR2); conditions: ESR2 isoform, E2 10 nM, RAD1901 10^-10-10^-6 M, 24 hours
T2 construct: expressed in transfected cells; host or cells: SKBR3
T2 sequence (Q92731 whole entry, canonical isoform): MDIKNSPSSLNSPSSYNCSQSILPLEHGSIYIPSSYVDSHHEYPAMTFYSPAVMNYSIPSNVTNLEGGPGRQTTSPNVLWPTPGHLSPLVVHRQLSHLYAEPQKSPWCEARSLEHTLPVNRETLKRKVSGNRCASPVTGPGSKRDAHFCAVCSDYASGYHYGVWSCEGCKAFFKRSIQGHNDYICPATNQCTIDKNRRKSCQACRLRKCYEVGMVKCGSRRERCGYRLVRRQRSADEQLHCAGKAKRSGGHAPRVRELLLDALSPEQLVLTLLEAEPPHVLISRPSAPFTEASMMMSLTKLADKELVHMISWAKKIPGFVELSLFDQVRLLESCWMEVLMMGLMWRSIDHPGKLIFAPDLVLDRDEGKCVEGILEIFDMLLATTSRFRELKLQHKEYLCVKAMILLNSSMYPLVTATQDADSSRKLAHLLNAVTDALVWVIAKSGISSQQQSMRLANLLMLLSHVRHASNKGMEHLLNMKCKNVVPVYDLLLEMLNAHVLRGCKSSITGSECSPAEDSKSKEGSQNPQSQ
Method: as §1

[3] = system: ESR1 target gene trefoil factor 1 (TFF1); assay: E2-dependent ESR1 target gene (TFF1) mRNA in MCF7 cells, RT qPCR; conditions: 10^-9 M E2, ligand 10^-11-10^-6 M, 24 hours
Method: RNA isolation and analysis was performed as described (Wardell et al., (2001) Biochem Pharmacol 82 (2):122-130). mRNA abundance was calculated using the ΔΔCT method (Wardell et al., (2001) Biochem Pharmacol 82 (2):122-130). Primer sequences are available upon request.
(§2) The ability of RAD1901 (FIG. 5A) to modulate the […] estradiol (E2) dependent transcriptional activity of the human estrogen receptor alpha (ESR1) and human estrogen receptor beta (ESR2) was assessed in transiently transfected SKBR3 cells using a synthetic reporter gene. […] For FIG. 5B, SKBR3 cells were plated in phenol red free media supplemented with charcoal stripped FBS (CFS) 24 hours prior to transfection with an ERE-luciferase reporter together with ESR1 or ESR2 expression vectors. 24 hours after transfection, cells were treated with E2 (10 nM) together with RAD1901 (10^−10-10^−6 M) for 24 hours prior to harvest and analysis of luciferase activity normalized to co-transfected β-galactosidase control. […] DNA content as assessed by fluorescence was measured as a surrogate for cell proliferation. The relative increase in DNA fluorescence was calculated by normalizing to baseline values detected in a duplicate plate of cells that was harvested on day 1 prior to the initial treatment. […] For FIG. 5F, expression of ESR1 target genes in tumors was analyzed essentially as in (C).

[4] = system: MCF7 cells; assay: E2-stimulated MCF7 cell proliferation assay (8 day, DNA fluorescence); conditions: 10^-9 M E2, ligand 10^-11-10^-6 M, 8 day assay
Method: Assays evaluating the effects of SERDs and SERMs on cell proliferation were performed as described (Wardell et al., (2013) Clin Cancer Res 19 (9):2420-2431).
as §2

[5] = system: ESR1 target genes; assay: ESR1 target gene expression profile in MCF7 cells; conditions: 24 hours
Method: A recent extensive microarray analysis has identified “sentinel” subsets of ER-responsive genes that can differentiate between ER agonists, SERMs and SERDs. […] MCF7 breast cancer cells were treated 24 hours with RAD1901 (0-1 μM) in the presence or absence of 17β-estradiol (1 nM). RNA isolation and the analysis of the expression of target genes Anterior gradient protein 2 (AGR2) and KCNK6 was conducted as in Example 3.
The expression of ESR1 target genes responsive to (FIG. 10A) agonists, (FIG. 10B) primarily SERMs, or (FIG. 10C) SERMs and agonists was analyzed as in FIG. 5. […] Significant target gene regulation (*p<0.05) as compared to the vehicle control was detected by 2 way ANOVA followed by Fisher's LSD (Graphpad Prism 6). […] Interaction of ESR1 with the Gal4DBD peptide constructs was detected through activation of a Gal4-responsive luciferase reporter construct and was normalized to detected β-galactosidase activity expressed in a constitutive manner using a second vector. Normalized response was expressed as fold increase over the detected level of interaction between Gal4DBD alone and ESR1-VP16 in the absence of ligand (Veh). For FIG. 10E, the effect of SERMs and SERDs (10^−6 M) on the proliferation of MCF7 cells in response to E2 (10^−9 M) or insulin (2×10^−9 M) was evaluated as in FIG. 5. […]

[6] = system: MCF7 cells; assay: MCF7 proliferation in response to E2 or insulin; conditions: SERMs and SERDs 10^-6 M, insulin 2×10^-9 M
Method: The expression of ESR1 target genes responsive to (FIG. 10A) agonists, (FIG. 10B) primarily SERMs, or (FIG. 10C) SERMs and agonists was analyzed as in FIG. 5. Relative changes of these and additional target genes designed to evaluate dose dependent response to RAD1901 are presented in FIG. 11. Significant target gene regulation (*p<0.05) as compared to the vehicle control was detected by 2 way ANOVA followed by Fisher's LSD (Graphpad Prism 6). […] Triplicate wells of SKBR3 cells were transfected with plasmids expressing ESR1 fused to VP16 together with Gal4DBD alone (control) or Gal4DBD fused to ESR1 interacting peptides noted on the horizontal axis. Cells were then treated with the indicated ESR1 ligands (10^−7 M unless otherwise indicated). Interaction of ESR1 with the Gal4DBD peptide constructs was detected through activation of a Gal4-responsive luciferase reporter construct and was normalized to detected β-galactosidase activity expressed in a constitutive manner using a second vector. Normalized response was expressed as fold increase over the detected level of interaction between Gal4DBD alone and ESR1-VP16 in the absence of ligand (Veh). For FIG. 10E, the effect of SERMs and SERDs (10^−6 M) on the proliferation of MCF7 cells in response to E2 (10^−9 M) or insulin (2×10^−9 M) was evaluated as in FIG. 5. Statistically similar treatments (2-way ANOVA followed by Bonferroni comparison) are indicated by letters. […] The expression of ESR1 target genes responsive to (A) agonists, (B) primarily SERMs, or (C) SERMs and agonists was analyzed using RT qPCR following RNA isolation. mRNA expression was normalized (ΔΔCT analysis) to the similarly detected 36B4 housekeeping. The profiles presented in dendogram format were analyzed with the Ward hierarchical clustering algorithm (JMP 11) using standardized data.

more potent inhibitor of ESR1 than of ESR2 ([1]; ERE-luciferase reporter): 100 fold
inhibition of E2-dependent activation of an ERE-luciferase reporter ([1]; ESR1 isoform, E2 10 nM, RAD1901 10^-10-10^-6 M, 24 hours): effectively inhibited
inhibition of E2-dependent activation of an ERE-luciferase reporter [2]: effectively inhibited
SMILES: CCNCCc1ccc(CN(CC)c2cc(OC)ccc2[C@@H]2CCc3cc(O)ccc3C2)cc1 [RAD1901, (R)-6-{2-{ethyl[4-(2-ethylaminoethyl)benzyl]amino}-4-methoxyphenyl}-5,6,7,8-tetrahydronaphthalen-2-ol]
E2-dependent induction of target gene transcription (TFF1 mRNA) [3]: inhibited
E2-dependent stimulation of cell proliferation [4]: inhibited
regulation of ER transactivation of target genes AGR2 and KCNK6 ([5]; RAD1901 0-1 μM, presence or absence of 17β-estradiol 1 nM): dose dependent agonist/antagonist regulation
expression pattern of ESR1 target genes (agonist-, SERM-, SERM/agonist-responsive) ([5]; RAD1901 10^-9-10^-6 M): biphasic response
insulin-stimulated proliferation [6]: without effect
